These results are taken from PubChem BioAssay AID330 (DTP/NCI, 2004).

The test has as its system P388 leukemia ip, CD2F1 mice, survival T/C. The test is described as follows: NCI In Vivo Anticancer Drug Screen. Data for tumor model P388 Leukemia (intraperitoneal) in CD2F1 (CDF1) mice. The settings on record: endpoint: median survival time, higher = longer survival. The gist of the method: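 Mice carrying the transplanted tumor received test compound or vehicle. Survival was recorded in each group, and the value is the treated-group measurement divided by that of the vehicle-treated control group.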

Where [1] appears, read: dose: 100.0 mg/kg/injection, schedule: Q04DX003 (ip), vehicle: saline with Tween-80.
Where [2] appears, read: dose: 200.0 mg/kg/injection, schedule: Q04DX003 (ip), vehicle: saline with Tween-80.
Setting [3] is: dose: 50.0 mg/kg/injection, schedule: Q01DX005 (ip), vehicle: saline with Tween-80.
[4] abbreviates: dose: 100.0 mg/kg/injection, schedule: Q01DX005 (ip), vehicle: saline with Tween-80.
Setting [5] is: dose: 50.0 mg/kg/injection, schedule: Q01DX005 (ip), vehicle: Klucel (hydroxypropylcellulose) (HPC).
[6] abbreviates: dose: 100.0 mg/kg/injection, schedule: Q01DX005 (ip), vehicle: Klucel (hydroxypropylcellulose) (HPC).
Setting [7] is: dose: 6.25 mg/kg/injection, schedule: Q01DX005 (ip), vehicle: Klucel (hydroxypropylcellulose) (HPC).
The mark [8] stands for this setting: dose: 12.5 mg/kg/injection, schedule: Q01DX005 (ip), vehicle: Klucel (hydroxypropylcellulose) (HPC).
The mark [9] stands for this setting: dose: 200.0 mg/kg/injection, schedule: Q01DX005 (ip), vehicle: saline with Tween-80.
[10] abbreviates: dose: 200.0 mg/kg/injection, schedule: Q01DX005 (ip), vehicle: Klucel (hydroxypropylcellulose) (HPC).
The mark [11] stands for this setting: dose: 50.0 mg/kg/injection, schedule: Q01DX009 (ip), vehicle: saline with Tween-80.
The mark [12] stands for this setting: dose: 25.0 mg/kg/injection, schedule: Q01DX005 (ip), vehicle: Klucel (hydroxypropylcellulose) (HPC).
Setting [13] is: dose: 50.0 mg/kg/injection, schedule: Q01DX009 (ip), vehicle: saline.
The mark [14] stands for this setting: dose: 100.0 mg/kg/injection, schedule: Q01DX009 (ip), vehicle: saline.
Setting [15] is: dose: 200.0 mg/kg/injection, schedule: Q01DX009 (ip), vehicle: saline.

Several values for one entry are separate records, joined by “and”; a condition that tells them apart may be missing. Equal entries are not always repeated. Toxic doses and inconclusive results are not listed.

With `Cc1ccccc1C1OC2=C(Nc3ccc([N+](=O)[O-])cc3N2)C1=O` (configuration not stated), the T/C (dose: 60.0 mg/kg/injection, schedule: Q01DX005 (ip), vehicle: Klucel (hydroxypropylcellulose) (HPC)) was 88 % of control; the T/C (dose: 120.0 mg/kg/injection, schedule: Q01DX005 (ip), vehicle: Klucel (hydroxypropylcellulose) (HPC)) was 90 % of control; the T/C (dose: 240.0 mg/kg/injection, schedule: Q01DX005 (ip), vehicle: Klucel (hydroxypropylcellulose) (HPC)) was 101 % of control.

In the case of `Nc1ccn(COCCOCc2ccccc2)c(=O)n1`, the T/C (dose: 100.0 mg/kg/injection, schedule: Q04DX002 (ip), vehicle: Klucel (hydroxypropylcellulose) (HPC)) is 98 % of control; the T/C (dose: 200.0 mg/kg/injection, schedule: Q04DX002 (ip), vehicle: Klucel (hydroxypropylcellulose) (HPC)) is 100 % of control; the T/C (dose: 400.0 mg/kg/injection, schedule: Q04DX002 (ip), vehicle: Klucel (hydroxypropylcellulose) (HPC)) was 99 % of control.

Turning to `C=C1C(=O)OC2/C=C(/C)CC/C=C(\C(=O)O)CC/C=C(\C)CCC12` (configuration not stated), the T/C runs as follows: under setting [1], 113 % of control; under setting [2], 110 % of control.

Consider `OCc1ccc2ccc3ccc(CO)nc3c2n1`, for which the T/C runs as follows: (dose: 12.5 mg/kg/injection, schedule: Q01DX005 (ip), vehicle: saline with Tween-80) 97 % of control; (dose: 25.0 mg/kg/injection, schedule: Q01DX005 (ip), vehicle: saline with Tween-80) 111 % of control; under setting [3], 104 % of control and 109 % of control; under setting [4], 113 % of control.

With `Nc1cc(=O)[nH]c(=S)n1-c1ccccn1`, the T/C runs as follows: (dose: 75.0 mg/kg/injection, schedule: Q01DX001 (ip), vehicle: saline with Tween-80) 104 % of control; (dose: 150.0 mg/kg/injection, schedule: Q01DX001 (ip), vehicle: saline with Tween-80) 100 % of control; (dose: 300.0 mg/kg/injection, schedule: Q01DX001 (ip), vehicle: saline with Tween-80) 104 % of control.

Consider `CC(C)C1OC2(CCCC2)OCC1(C)C` (configuration not stated), for which the T/C was 103 % of control (dose: 100.0 mg/kg/injection, schedule: Q04DX003 (ip), vehicle: Klucel (hydroxypropylcellulose) (HPC)); 103 % of control (dose: 200.0 mg/kg/injection, schedule: Q04DX003 (ip), vehicle: Klucel (hydroxypropylcellulose) (HPC)); 100 % of control (dose: 400.0 mg/kg/injection, schedule: Q04DX003 (ip), vehicle: Klucel (hydroxypropylcellulose) (HPC)).

Regarding `CC[N+](C)(C)c1nc(N(C)C)nc(N(C)C)n1`, the T/C is 108 % of control (dose: 6.0 mg/kg/injection, schedule: Q01DX005 (ip), vehicle: saline) and 118 % of control (dose: 12.0 mg/kg/injection, schedule: Q01DX005 (ip), vehicle: saline).

Turning to `CC(C)(C)c1cc(C(C)(C)C)c(=O)oc(=O)c1`, the T/C reads like this: under setting [5], 98 % of control; under setting [6], 98 % of control.

For `COc1ccc2c(Cc3ccccc3)c3[n+](cc2c1OC)CCc1cc2c(cc1-3)OCO2`, the T/C reads like this: (dose: 1.56 mg/kg/injection, schedule: Q01DX005 (ip), vehicle: Klucel (hydroxypropylcellulose) (HPC)) 113 % of control; (dose: 3.12 mg/kg/injection, schedule: Q01DX005 (ip), vehicle: Klucel (hydroxypropylcellulose) (HPC)) 115 % of control; under setting [7], 113 % of control and 115 % of control; under setting [8], 118 % of control.

For the compound `CC(=O)OC1SCCn2c1nc1ccccc1c2=O` (configuration not stated), the T/C is, setting by setting: under setting [3], 106 % of control; under setting [4], 104 % of control; under setting [9], 99 % of control.

`Nc1n[nH]c2ccccc12`: the T/C by setting is: under setting [5], 104 % of control and 107 % of control; under setting [6], 105 % of control and 107 % of control; under setting [10], 117 % of control.

For the compound `C[n+]1c(/C=C/c2ccccc2Cl)ccc2ccccc21`, the T/C (dose: 12.5 mg/kg/injection, schedule: Q01DX009 (ip), vehicle: saline with Tween-80) is 94 % of control; the T/C (dose: 25.0 mg/kg/injection, schedule: Q01DX009 (ip), vehicle: saline with Tween-80) was 100 % of control; the T/C under setting [11] is 94 % of control.

`CCc1cc(C=C2C(=O)c3ccccc3C2=O)cc(CC)c1O`: the T/C is, setting by setting: (dose: 100.0 mg/kg/injection, schedule: Q04DX002 (ip), vehicle: saline) 99 % of control; (dose: 200.0 mg/kg/injection, schedule: Q04DX002 (ip), vehicle: saline) 99 % of control; (dose: 400.0 mg/kg/injection, schedule: Q04DX002 (ip), vehicle: saline) 99 % of control.

Consider `CCOc1ccc(-c2nc3ccc(-c4nc5ccc(N6CCN(C)CC6)cc5[nH]4)cc3[nH]2)cc1`, for which the T/C (dose: 3.12 mg/kg/injection, schedule: Q01DX005 (ip), vehicle: water) was 159 % of control.

For the compound `CCc1n[nH]c(CC)c1CCCCCCOc1ccc(OC)cc1Cl`, the T/C under setting [3] was 102 % of control; the T/C (dose: 60.0 mg/kg/injection, schedule: Q01DX005 (ip), vehicle: saline with Tween-80) was 100 % of control; the T/C under setting [4] is 105 % of control; the T/C (dose: 120.0 mg/kg/injection, schedule: Q01DX005 (ip), vehicle: saline with Tween-80) was 93 % of control; the T/C under setting [9] was 108 % of control; the T/C (dose: 240.0 mg/kg/injection, schedule: Q01DX005 (ip), vehicle: saline with Tween-80) is 106 % of control.

For `COc1cccc(NCCCSC)c1`, the T/C by setting is: (dose: 50.0 mg/kg/injection, schedule: Q01DX005 (ip), vehicle: saline) 102 % of control; (dose: 100.0 mg/kg/injection, schedule: Q01DX005 (ip), vehicle: saline) 116 % of control.

In the case of `c1ccc2nc3ccccc3nc2c1`, the T/C is 109 % of control under setting [12], 104 % of control under setting [5], 104 % of control under setting [6] and 104 % of control under setting [10].

Turning to `OCc1cnccc1Br`, the T/C was 99 % of control (dose: 60.0 mg/kg/injection, schedule: Q01DX005 (ip), vehicle: saline); 100 % of control (dose: 120.0 mg/kg/injection, schedule: Q01DX005 (ip), vehicle: saline); 99 % of control (dose: 240.0 mg/kg/injection, schedule: Q01DX005 (ip), vehicle: saline).

For the compound `C[C@]12C=CC(=O)C[C@@H]1CC[C@@H]1[C@@H]2C(=O)C[C@]2(C)C(=O)CC[C@@H]12`, the T/C under setting [1] was 108 % of control; the T/C under setting [2] was 91 % of control; the T/C (dose: 400.0 mg/kg/injection, schedule: Q04DX003 (ip), vehicle: saline with Tween-80) is 108 % of control.

As for `CC(C)N1CCN(c2ccncc2S(=O)(=O)N2CCN(C)CC2)CC1`, the T/C by setting is: under setting [13], 106 % of control; under setting [14], 90 % of control; under setting [15], 99 % of control.

With `CN(C)c1ncnc2nc(Cl)[nH]c12`, the T/C was 95 % of control under setting [7], 112 % of control under setting [8] and 108 % of control under setting [12].

Consider `COC(=O)N/N=C(/CC1(O)C(=O)Nc2ccc(Br)cc21)c1ccc(Cl)cc1Cl` (configuration not stated), for which the T/C runs as follows: (dose: 100.0 mg/kg/injection, schedule: Q04DX002 (ip), vehicle: saline with Tween-80) 89 % of control; (dose: 200.0 mg/kg/injection, schedule: Q04DX002 (ip), vehicle: saline with Tween-80) 95 % of control; (dose: 400.0 mg/kg/injection, schedule: Q04DX002 (ip), vehicle: saline with Tween-80) 100 % of control.

Consider `Cc1ccc(O)c(N)c1`, for which the T/C was 94 % of control under setting [11]; 98 % of control under setting [13]; 100 % of control (dose: 100.0 mg/kg/injection, schedule: Q01DX009 (ip), vehicle: saline with Tween-80); 104 % of control and 119 % of control under setting [14]; 105 % of control (dose: 200.0 mg/kg/injection, schedule: Q01DX009 (ip), vehicle: saline with Tween-80); 108 % of control and 95 % of control under setting [15]. In addition, the T/C (dose: 400.0 mg/kg/injection, schedule: Q01DX009 (ip), vehicle: saline with Tween-80) was 121 % of control.

Regarding `CC(C)(C)c1ccc(O)c(CNCc2ccccc2)c1`, the T/C is 99 % of control (dose: 25.0 mg/kg/injection, schedule: Q01DX005 (ip), vehicle: Klucel + Tween-80); 97 % of control (dose: 50.0 mg/kg/injection, schedule: Q01DX005 (ip), vehicle: Klucel + Tween-80); 93 % of control (dose: 100.0 mg/kg/injection, schedule: Q01DX005 (ip), vehicle: Klucel + Tween-80); 100 % of control (dose: 200.0 mg/kg/injection, schedule: Q01DX005 (ip), vehicle: Klucel + Tween-80).
